This note sets out measurements from ChEMBL document CHEMBL1140693, “4,5-diarylisoxazole Hsp90 chaperone inhibitors: potential therapeutic agents for the treatment of cancer” (J Med Chem, 2008).

One data set relates to SK-MEL-28. The experiment in a line: Growth inhibition of human SKMel28 cells by SRB assay. Format: functional. Background: Sulforhodamine B stains cellular protein and so reports cell mass.
A short description of data set [1]: Apparent terminal-phase volume of distribution (Vz/F) in human HCT116 cells bearing NCr athymic mouse at 4 mg/kg, cassette dosing. The conditions noted are these: in vivo.
Data set [2] is described as follows: Terminal half life in human HCT116 cells bearing NCr athymic mouse at 4 mg/kg, cassette dosing. Format: ADME, organism-based, HCT-116. Further details: dose 4 mg/kg. The conditions noted are these: in vivo, read-out: t1/2 lambda z (converted).
Data set [3] can be described thus: AUClast in human HCT116 cells bearing NCr athymic mouse at 4 mg/kg, cassette dosing. Format: ADME, organism-based, HCT-116. The arrangement: time 0 - last, dose 4 mg/kg. The conditions noted are these: in vivo.
A short description of data set [4]: Cmax in human HCT116 cells bearing NCr athymic mouse at 4 mg/kg, cassette dosing. Format: ADME, organism-based, HCT-116. Further details: dose 4 mg/kg. The settings on record: in vivo.
Data set [5] in a line: Apparent clearance in human HCT116 cells bearing NCr athymic mouse at 4 mg/kg, cassette dosing. Format: ADME, organism-based, HCT-116. The arrangement: dose 4 mg/kg. The conditions noted are these: in vivo.
For a further data set, the system named is SF-268. The data set is described as follows: Growth inhibition of human SF268 cells by SRB assay. Format: functional.
Data set [6] is described as follows: Growth inhibition of human U87MG cells by SRB assay. In kind it is functional, U-87MG ATCC. The conditions noted are these: U-87 MG.
The nature of data set [7]: Growth inhibition of human PC3M cells by SRB assay. The settings on record: PC-3M. Format: functional.
For data set [8], the system named is HCT-116. The data set is described as follows: cells. The settings on record: Homo sapiens, HCT-116, 24 h.
Description: Growth inhibition of human HCT116 cells after 24 hrs by SRB assay
In a further data set the test system is DU-145. The experiment in a line: Growth inhibition of human DU145 cells by SRB assay. Format: functional.
Data set [9] can be described thus: Tmax in human HCT116 cells bearing NCr athymic mouse at 4 mg/kg, cassette dosing. Format: ADME, organism-based, HCT-116. The arrangement: dose 4 mg/kg. The conditions noted are these: in vivo.
In a further data set the target is Heat shock protein HSP90 (Homo sapiens, UniProt P07900+P08238).
Data set [10] relates to HCT-116. The data set is described as follows: Inhibition of tumor growth in human HCT116 cells bearing mouse assessed as tumor weight at 50 mg/kg, ip qd after 12 days relative to control. The conditions noted are these: HCT-116, ip, 288 h.

Description for Heat shock protein HSP90: Displacement of fluorescent labelled VER-00051001 from human Hsp90-beta by FP assay

Broadly, the GI50 is the concentration that inhibits growth by half. Low values mean greater sensitivity of the cells, high ones lower sensitivity of the cells. For orientation: AUC(0-t) means the area under the concentration-time curve up to a stated or last time point. In general, Cmax refers to the highest concentration seen after dosing. As usually defined, the CL/F is clearance divided by bioavailability, as obtained after extravascular dosing. In general, Tmax refers to the time at which the peak concentration occurs. Consider `CCNC(=O)c1noc(-c2cc(Cl)c(O)cc2O)c1-c1ccc(OC)cc1`, for which the GI50 in the data set on SK-MEL-28 turned out to be 45 nM; in the data set with SF-268 it was 34 nM; in [6], 28 nM; in [7], 220 nM; with HCT-116 [8], 120 nM; in the data set with DU-145, 230 nM. Further, in [1], the Vz/F turned out to be 0.432 L. Moreover, in data set [2], the half-life is 234 min. For the same compound, the AUC(0-t) in data set [3] was found to be 1.73 µM·h. Also, the peak concentration (Cmax) in [4] is 482 nM. Further, the apparent clearance (CL/F) in data set [5] is 1.27 mL/min. For the same compound, the time of peak concentration (Tmax) in data set [9] stood at 1 h.
The IC50 is the point on the concentration scale where inhibition reaches its midpoint. The low end stands for greater potency, the high end for weaker potency. The compound `CCNC(=O)c1noc(-c2cc(CC)c(O)cc2OC)c1-c1ccc(CN2CCOCC2)cc1` displayed a half-maximal inhibitory concentration (IC50) against Heat shock protein HSP90 of 0.54 µM. The same compound had a GI50 in the data set with HCT-116 [8] of 2150 nM.
For `CCNC(=O)c1noc(-c2cc(CC)c(OC)cc2OC)c1-c1ccc(CN2CCOCC2)cc1`, in that order: 1.56 µM and 32000 nM.
For `CCNC(=O)c1noc(-c2cc(Cl)c(O)cc2O)c1-c1ccc(CN2CCS(=O)(=O)CC2)cc1`, in that order: 0.021 µM and 470 nM.
For `CCNC(=O)c1noc(-c2cc(Cl)c(O)cc2O)c1-c1ccc(CNCCS(C)(=O)=O)cc1`, in that order: 0.014 µM and 1980 nM.
`CCNC(=O)c1noc(-c2cc(Cl)c(O)cc2O)c1-c1ccc(CN(CC)CC)cc1` gave an IC50 on Heat shock protein HSP90 of 0.064 µM. Besides, halving of growth in the data set with HCT-116 [8] (GI50) required 56 nM.
For `CCNC(=O)c1noc(-c2cc(Cl)c(O)cc2O)c1-c1ccc(CN2CCCCC2)cc1`, in that order: 0.019 µM and 61 nM.
For `CCNC(=O)c1noc(-c2cc(Cl)c(O)cc2O)c1-c1ccc(CN2CCC(O)CC2)cc1`, in that order: 0.028 µM and 1290 nM.
For `CCNC(=O)c1noc(-c2cc(Cl)c(O)cc2O)c1-c1ccc(CN(C)C)cc1`, in that order: 0.018 µM and 69 nM.
For `CCNC(=O)c1noc(-c2cc(Cl)c(O)cc2O)c1-c1cccc(N2CCOCC2)c1`, the IC50 against Heat shock protein HSP90 worked out at 0.127 µM. For the same compound, the GI50 with HCT-116 [8] came to 634 nM.
For `CCNC(=O)c1noc(-c2cc(CCc3ccccc3)c(O)cc2O)c1-c1ccc(CN2CCOCC2)cc1`, in that order: 0.032 µM and 29 nM.
With `CCNC(=O)c1noc(-c2cc(CC)c(O)cc2O)c1-c1ccc(CN(CC)CC)cc1`, on Heat shock protein HSP90, the concentration for half-maximal inhibition (IC50) was 0.013 µM. In the data set on HCT-116 [8], this compound showed a concentration for 50% growth inhibition (GI50) of 41 nM.
For `CCNC(=O)c1noc(-c2cc(CCc3ccc(F)cc3)c(O)cc2O)c1-c1ccc(CN2CCOCC2)cc1`, in that order: 0.02 µM and 39 nM.
Regarding `CCNC(=O)c1noc(-c2cc(CCc3cccc(F)c3)c(O)cc2O)c1-c1ccc(CN2CCOCC2)cc1`, at Heat shock protein HSP90, the 50% inhibitory concentration (IC50) was 0.026 µM. The GI50 in the data set on HCT-116 [8] is 58 nM.
The compound `CCNC(=O)c1noc(-c2cc(-c3ccccc3)c(O)cc2O)c1-c1ccc(CN2CCOCC2)cc1` had an IC50 at Heat shock protein HSP90 of 0.022 µM. This compound yielded a 50% growth inhibitory concentration (GI50) with HCT-116 [8] of 152 nM.
For `CCNC(=O)c1noc(-c2cc(-c3ccccc3C)c(O)cc2O)c1-c1ccc(CN2CCCCC2)cc1`, in that order: 0.014 µM and 114 nM.
Consider `CCNC(=O)c1n[nH]c(-c2cc(Cl)c(O)cc2O)c1-c1ccc(OC)cc1`, for which the GI50 in the data set on SK-MEL-28 was 480 nM; in the data set with SF-268, 320 nM; in [6], 1200 nM; in [7] it was 2200 nM; with DU-145, 1200 nM.
In turn, `CCNC(=O)c1noc(-c2cc(C(C)(C)C)c(O)cc2O)c1-c1ccc(CN2CCOCC2)cc1` returned an IC50 against Heat shock protein HSP90 of 0.008 µM. Also, the Vz/F in [1] is 0.809 L. The half-life in [2] was 300 min. In data set [3], the AUC(0-t) amounted to 0.751 µM·h. Also, the Cmax in data set [4] was 203 nM. For the same compound, the apparent clearance (CL/F) in data set [5] was 1.85 mL/min. Moreover, halving of growth with HCT-116 [8] (GI50) required 70 nM. In addition, in data set [9], the Tmax amounted to 1 h.
Consider `CCNC(=O)c1noc(-c2cc(-c3ccccc3F)c(O)cc2O)c1-c1ccc(CN2CCOCC2)cc1`, for which the half-inhibitory concentration (IC50) against Heat shock protein HSP90 was 0.039 µM. The GI50 in the data set on HCT-116 [8] came to 87 nM.
For `CCNC(=O)c1noc(-c2cc(Cl)c(O)cc2O)c1-c1cccc(N2CCN(C)CC2)c1`, in that order: 0.343 µM and 2780 nM.
For `CCNC(=O)c1noc(-c2cc(CC)c(O)cc2O)c1-c1ccc(CN2CCOCC2)cc1`, in that order: 0.029 µM and 25 nM.
In the case of `CCNC(=O)c1noc(-c2cc(-c3ccccc3)c(O)cc2O)c1-c1ccc(CN2CCCCC2)cc1`, the IC50 against Heat shock protein HSP90 turned out to be 0.014 µM. Moreover, in data set [1], the Vz/F amounted to 0.652 L. For the same compound, the half-life in data set [2] was 438 min. In addition, the exposure AUC(0-t) in data set [3] was determined as 0.995 µM·h. In data set [4], the maximum concentration (Cmax) is 237 nM. In data set [5], the CL/F is 1.03 mL/min. Further, the GI50 with HCT-116 [8] is 86 nM. Also, in data set [9], the Tmax is 1 h.
In turn, `CCNC(=O)c1noc(-c2cc(-c3ccccc3)c(O)cc2O)c1-c1ccc(CN(CC)CC)cc1` yielded an IC50 against Heat shock protein HSP90 of 0.074 µM. Moreover, the Vz/F in [1] is 0.736 L. For the same compound, the half-life in [2] was 876 min. In addition, the area under the curve AUC(0-t) in data set [3] came out at 1.25 µM·h. In data set [4], the peak level (Cmax) was 252 nM. For the same compound, the CL/F in data set [5] was 0.583 mL/min. In addition, it took 91 nM to inhibit growth in the data set on HCT-116 [8] by half (GI50). The time to peak (Tmax) in [9] came out at 4 h.
At Heat shock protein HSP90, `CCNC(=O)c1noc(-c2cc(Cl)c(O)cc2O)c1-c1ccc(CN2CCN(C)CC2)cc1` displayed a concentration for half-maximal inhibition (IC50) of 0.039 µM. The compound also registered a concentration for 50% growth inhibition (GI50) with HCT-116 [8] of 125 nM.
For `CCNC(=O)c1noc(-c2cc(Cl)c(O)cc2O)c1-c1ccc(CN2CCCC2)cc1`, in that order: 0.039 µM and 118 nM.
At Heat shock protein HSP90, `CCNC(=O)c1noc(-c2cc(CC)c(OC)cc2O)c1-c1ccc(CN2CCOCC2)cc1` gave a half-inhibitory concentration (IC50) of 0.015 µM. Moreover, growth in the data set on HCT-116 [8] was halved (GI50) at 80 nM.
Take `CCNC(=O)c1noc(-c2cc(CCc3ccc(F)cc3)c(O)cc2O)c1-c1ccc(CN2CCCCC2)cc1`: the concentration for half-maximal inhibition (IC50) at Heat shock protein HSP90 worked out at 0.026 µM. In addition, halving of growth in the data set on HCT-116 [8] (GI50) required 29 nM.
For orientation: T/C means the result in the treated group divided by that in the control group, in per cent. Take `CCNC(=O)c1noc(-c2cc(C(C)C)c(O)cc2O)c1-c1ccc(CN2CCOCC2)cc1` [LUMINESPIB]: the concentration for 50% growth inhibition (GI50) in the data set with SK-MEL-28 was 5 nM; in the data set on SF-268, 6 nM; in data set [6], 8 nM; in [7], 6 nM; in the data set on DU-145, 5 nM. Moreover, the Vz/F in [1] stood at 0.478 L. Besides, in data set [2], the half-life is 570 min. The area under the curve AUC(0-t) in [3] amounted to 1.72 µM·h. The compound also showed a peak concentration (Cmax) in [4] of 385 nM. In addition, in [5], the CL/F was 0.583 mL/min. The T/C at 50 mg/kg with HCT-116 [10] is 49.8%. Further, the Tmax in data set [9] came out at 1 h.
